Measurements from ChEMBL document CHEMBL1201862, “PubChem BioAssay data set” (2004).
Where a name gives a salt, the structure may show the parent alone.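 Step 1: Grow cells in 96-well plates. Step 2: Expose to compound for 48 hours at 5 concentrations. Step 3: Interpolate endpoints linearly; if unreached, use highest concentration. GI50: concentration for 50% inhibition of growth.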 Active and inactive are the calls of the source. Rule as the data show it: active = GI50 up to about 1.1 µM and inactive = higher.

How the values were obtained:
Experiment in all cases: inhibition of tumour cell growth, NCI panel, 48 h
ACHN = system: ACHN
DU-145 = system: DU-145
HCC 2998 = system: HCC 2998
HCT-116 = system: HCT-116
HL-60 = system: HL-60
HT-29 = system: HT-29
M14 = system: M14
MCF7 = system: MCF7
MOLT-4 = system: MOLT-4
NCI-H226 = system: NCI-H226
OVCAR-4 = system: OVCAR-4
RXF 393 = system: RXF 393
SK-MEL-28 = system: SK-MEL-28
SK-MEL-2 = system: SK-MEL-2
SK-MEL-5 = system: SK-MEL-5
SNB-19 = system: SNB-19
SNB-75 = system: SNB-75
SR = system: SR
SW-620 = system: SW-620

Measured: GI50

O=C(O)Cc1c[nH]c2ccc(F)cc12
inactive: ACHN > 100 µM | DU-145 > 100 µM | HCC 2998 > 100 µM | HCT-116 > 100 µM | HL-60 > 100 µM | HT-29 > 100 µM | M14 > 100 µM | MCF7 > 100 µM | MOLT-4 > 100 µM | NCI-H226 > 100 µM | OVCAR-4 > 100 µM | RXF 393 > 100 µM | SK-MEL-28 > 100 µM | SK-MEL-2 > 100 µM | SK-MEL-5 > 100 µM | SNB-19 > 100 µM | SNB-75 > 100 µM | SR > 100 µM | SW-620 > 100 µM

CN(C)Cc1cc(/N=N/c2ccccc2Cl)ccc1O
inactive: ACHN 12.1 µM | DU-145 23.5 µM | HCC 2998 13.5 µM | HCT-116 28.1 µM | HL-60 10.8 µM | HT-29 14.2 µM | M14 19.3 µM | MCF7 16.8 µM | MOLT-4 5.48 µM | NCI-H226 16.1 µM | OVCAR-4 52.6 µM | RXF 393 20.3 µM | SK-MEL-28 16.9 µM | SK-MEL-5 11.9 µM | SNB-19 32.2 µM | SNB-75 18.7 µM | SR 26.5 µM | SW-620 13.3 µM

CCN(CC)c1ccc2cc(C(N)=S)c(=N)oc2c1
inactive: ACHN > 100 µM | DU-145 > 100 µM | HCC 2998 > 100 µM | HCT-116 > 100 µM | HL-60 > 100 µM | HT-29 > 100 µM | M14 > 100 µM | MCF7 > 100 µM | MOLT-4 > 100 µM | NCI-H226 > 100 µM | OVCAR-4 > 100 µM | RXF 393 > 100 µM | SK-MEL-28 > 100 µM | SK-MEL-2 > 100 µM | SK-MEL-5 > 100 µM | SNB-19 > 100 µM | SNB-75 > 100 µM | SR > 100 µM | SW-620 > 100 µM

CCN(CC)CCNc1ccc(C)c2sc3ccccc3c(=O)c12 [LUCANTHONE HYDROCHLORIDE]
inactive: ACHN 3.54 µM | DU-145 6.67 µM | HCC 2998 3.64 µM | HCT-116 1.91 µM | HL-60 1.79 µM | HT-29 1.67 µM | M14 1.75 µM | MCF7 2.39 µM | MOLT-4 1.27 µM | NCI-H226 5.04 µM | OVCAR-4 4.66 µM | RXF 393 1.98 µM | SK-MEL-28 1.82 µM | SK-MEL-2 3.83 µM | SK-MEL-5 2.17 µM | SNB-19 2.54 µM | SNB-75 2.06 µM | SR 2.33 µM | SW-620 1.76 µM

C=CCOc1ccc(C(=N/NC(=O)c2ccccc2)/N=N/c2ccccc2)cc1OC
inactive: ACHN > 100 µM | DU-145 > 100 µM | HCC 2998 37.5 µM | HCT-116 67.9 µM | HL-60 37.8 µM | HT-29 46.5 µM | M14 > 100 µM | MCF7 > 100 µM | MOLT-4 42.6 µM | NCI-H226 60.5 µM | OVCAR-4 89.9 µM | RXF 393 > 100 µM | SK-MEL-28 > 100 µM | SK-MEL-2 > 100 µM | SK-MEL-5 50.5 µM | SNB-19 > 100 µM | SNB-75 > 100 µM | SR 77.1 µM | SW-620 > 100 µM

O=C(/C=C\Nc1ccccc1O)C(F)(F)F
inactive: ACHN 67.8 µM | DU-145 > 100 µM | HCC 2998 > 100 µM | HCT-116 29.5 µM | HL-60 16.6 µM | HT-29 > 100 µM | M14 40.3 µM | MCF7 43.9 µM | MOLT-4 31.7 µM | NCI-H226 > 100 µM | OVCAR-4 71.9 µM | RXF 393 > 100 µM | SK-MEL-28 > 100 µM | SK-MEL-2 69 µM | SK-MEL-5 21 µM | SNB-19 > 100 µM | SNB-75 > 100 µM | SR 36.3 µM | SW-620 > 100 µM

C[C@]12CCC(=O)C=C1CC[C@@H]1[C@@H]2CC[C@]2(C)C(=O)/C(=C\c3ccccc3)C[C@@H]12
inactive: ACHN 33.3 µM | DU-145 33.5 µM | HCC 2998 17.4 µM | HCT-116 11.4 µM | HL-60 9.79 µM | HT-29 19.6 µM | M14 22.4 µM | MCF7 19.1 µM | MOLT-4 14 µM | NCI-H226 2.38 µM | OVCAR-4 41.9 µM | RXF 393 41.1 µM | SK-MEL-28 > 46.8 µM | SK-MEL-2 11.7 µM | SK-MEL-5 14.2 µM | SNB-19 60.5 µM | SNB-75 61.1 µM | SR 4.53 µM | SW-620 22.8 µM

CSc1c(C#N)c(O)nc(N)c1C(=O)Nc1ccc(C)cc1
inactive: DU-145 > 100 µM | HCC 2998 > 100 µM | HCT-116 > 100 µM | HL-60 > 100 µM | HT-29 > 100 µM | M14 > 100 µM | MCF7 > 100 µM | MOLT-4 > 100 µM | NCI-H226 34.4 µM | OVCAR-4 > 100 µM | RXF 393 > 100 µM | SK-MEL-28 > 100 µM | SK-MEL-2 > 100 µM | SK-MEL-5 > 100 µM | SNB-19 > 100 µM | SNB-75 > 100 µM | SR > 100 µM | SW-620 > 100 µM

CC(=O)N1CC[N+](C)(CCCCN2c3ccccc3Sc3cc(N=[N+]=[N-])ccc32)CC1
inactive: ACHN > 100 µM | DU-145 > 100 µM | HCC 2998 > 100 µM | HCT-116 > 100 µM | HL-60 86.5 µM | HT-29 > 100 µM | M14 > 100 µM | MCF7 > 100 µM | MOLT-4 > 100 µM | NCI-H226 > 100 µM | OVCAR-4 18 µM | RXF 393 > 100 µM | SK-MEL-28 > 100 µM | SK-MEL-2 > 100 µM | SK-MEL-5 62.8 µM | SNB-19 > 100 µM | SNB-75 > 100 µM | SR > 100 µM | SW-620 > 100 µM

COc1ccc(C(=O)c2ccc(-n3cc(/C=C/[N+](=O)[O-])c4ccccc43)cc2)cc1
inactive: ACHN 20.1 µM | DU-145 21.5 µM | HCC 2998 20.9 µM | HCT-116 10.6 µM | HL-60 13.7 µM | HT-29 23.9 µM | M14 29 µM | MCF7 9.08 µM | MOLT-4 4.81 µM | NCI-H226 > 51.5 µM | OVCAR-4 29.4 µM | RXF 393 5.45 µM | SK-MEL-28 28.1 µM | SK-MEL-2 23.1 µM | SK-MEL-5 21.6 µM | SNB-19 30.2 µM | SNB-75 91 µM | SR 8.81 µM | SW-620 3.69 µM

O=C(Cc1nc2ccccc2[nH]c1=O)c1c[nH]c2ccccc12
inactive: ACHN 10.5 µM | DU-145 15.2 µM | HCC 2998 13.3 µM | HCT-116 13.8 µM | HL-60 10.3 µM | HT-29 6.08 µM | M14 15.3 µM | MCF7 11.6 µM | MOLT-4 6.01 µM | NCI-H226 11.9 µM | OVCAR-4 11.4 µM | RXF 393 17.5 µM | SK-MEL-2 10.1 µM | SK-MEL-5 10.8 µM | SNB-19 25.8 µM | SNB-75 25.1 µM | SR 4.42 µM | SW-620 24.9 µM

Cn1cc(C[C@@H](N)C(=O)O)c2ccccc21 [INDOXIMOD]
inactive: ACHN > 100 µM | DU-145 > 100 µM | HCC 2998 > 100 µM | HCT-116 > 100 µM | HL-60 > 100 µM | HT-29 > 100 µM | M14 > 100 µM | MCF7 > 100 µM | MOLT-4 > 100 µM | NCI-H226 > 100 µM | OVCAR-4 > 100 µM | RXF 393 20 µM | SK-MEL-28 > 100 µM | SK-MEL-2 > 100 µM | SNB-19 > 100 µM | SNB-75 > 100 µM | SR > 100 µM | SW-620 > 100 µM

COc1ccc(COCC[C@H](C)OC2OC(CO)C(O)C(O)C2O)cc1 (stereo partly drawn)
inactive: ACHN > 100 µM | DU-145 > 100 µM | HCC 2998 > 100 µM | HCT-116 > 100 µM | HL-60 > 100 µM | HT-29 > 100 µM | M14 > 100 µM | MCF7 > 100 µM | MOLT-4 > 100 µM | NCI-H226 > 100 µM | OVCAR-4 > 100 µM | RXF 393 > 100 µM | SK-MEL-28 > 100 µM | SK-MEL-2 > 100 µM | SK-MEL-5 > 100 µM | SNB-19 > 100 µM | SNB-75 > 100 µM | SR > 100 µM | SW-620 > 100 µM

C=C1C(=O)[C@]23[C@H](O)[C@H]1CC[C@H]2[C@@]12CO[C@@]3(O)C[C@@H]1C(C)(C)CC[C@@H]2O [MEGATHYRIN A]
inactive: ACHN 4.84 µM | DU-145 9.53 µM | HCC 2998 8.69 µM | HCT-116 5.21 µM | HL-60 8.45 µM | HT-29 6.21 µM | MCF7 6.18 µM | MOLT-4 7.11 µM | NCI-H226 8.22 µM | OVCAR-4 > 25 µM | RXF 393 4.03 µM | SK-MEL-28 7.14 µM | SK-MEL-5 13 µM | SNB-19 21.2 µM | SNB-75 4.91 µM | SR 7.55 µM | SW-620 5.5 µM

CN(C)C(=S)SCC(=O)Nc1ccccc1
inactive: ACHN > 100 µM | DU-145 > 100 µM | HCC 2998 > 100 µM | HCT-116 > 100 µM | HL-60 > 100 µM | HT-29 > 100 µM | M14 > 100 µM | MCF7 > 100 µM | MOLT-4 > 100 µM | NCI-H226 > 100 µM | OVCAR-4 > 100 µM | RXF 393 > 100 µM | SK-MEL-28 80.4 µM | SK-MEL-2 > 100 µM | SK-MEL-5 > 100 µM | SNB-75 > 100 µM | SR > 100 µM | SW-620 > 100 µM
